Measured values as given in patent publication US20200368312A1 (priority 2017, published 2020).
Converted amounts (≈) assume the structure as drawn. Where two headings read alike, the source gives them in different places.

Experiments:
[1] = tested on: E. lenta; assay: Broth microdilution MIC, E. lenta (Table 7); type: cell-based; conditions: E. lenta MMX 1287 ATCC 43055
[2] = tested on: S. lugdenensis (CoNS); assay: Broth microdilution MIC, S. lugdenensis (CoNS) (Table 7); type: cell-based; conditions: S. lugdenensis (CoNS) MMX 8724
[3] = tested on: S. epidermidis (CoNS); assay: Broth microdilution MIC, S. epidermidis (CoNS) (Table 7); type: cell-based
[4] = tested on: Streptococci; assay: Broth microdilution MIC, Streptococci (Example 11, Table 7); type: cell-based
[5] = tested on: S. haemolyticus (CoNS); assay: Broth microdilution MIC, S. haemolyticus (CoNS) (Table 7); type: cell-based; conditions: S. haemolyticus (CoNS) MMX 529 ATCC 29970
[6] = tested on: S. hominis (CoNS); assay: Broth microdilution MIC, S. hominis (CoNS) (Table 7); type: cell-based; conditions: S. hominis (CoNS) MMX 667 ATCC 27844
[7] = tested on: Staphylococcus aureus; assay: microbe, parasite or virus in culture; type: cell-based
[8] = tested on: P. micros; assay: Broth microdilution MIC, P. micros (Table 7); type: cell-based; conditions: P. micros MMX 3546
[9] = tested on: C. perfringens; type: cell-based; conditions: C. perfringens MMX 8351 ATCC 13124
[10] = tested on: P. anaerobius; assay: Broth microdilution MIC, P. anaerobius (Table 7); type: cell-based; conditions: P. anaerobius MMX 1208 ATCC 27337
[11] = Un-inoculated solubility control plates, drug precipitation in test media; type: physicochemical; conditions: top concentration tested (64 μg/mL) in MHBII with blood and supplemented Brucella broth
[12] = tested on: Enterococci; type: cell-based
[13] = tested on: P. acnes; assay: Broth microdilution MIC, P. acnes (Table 7); type: cell-based
[14] = tested on: Clostridium difficile; assay: Broth microdilution MIC, C. difficile, anaerobic, supplemented Brucella Broth (Example 11, Table 7); type: cell-based

**Q.** With `CCCCCCCCCCNC1(C)CC(OC2C(Oc3c4cc5cc3Oc3ccc(cc3Cl)C(O)C3NC(=O)C(NC(=O)C5NC(=O)C(CC(N)=O)NC(=O)C(NC(=O)C(CC(C)C)NC)C(O)c5ccc(c(Cl)c5)O4)c4ccc(O)c(c4)-c4c(O)cc(O)cc4C(C(=O)O)NC3=O)OC(CO)C(O)C2O)OC(C)C1O` (stereo not shown) [Compound 5, N-decyl vancomycin] as the compound, how does the MIC [1] read?
**A.** Its MIC is 0.12 µg/mL (≈ 0.0755 µM).

**Q.** And the MIC [2]?
**A.** The MIC was 0.03 µg/mL (≈ 0.0189 µM).

**Q.** And the MIC ([3]; S. epidermidis (CoNS) MMX 762, MRSE)?
**A.** Its MIC is 0.12 µg/mL (≈ 0.0755 µM).

**Q.** And the MIC ([3]; S. epidermidis (CoNS) MMX 5145, MRSE)?
**A.** The MIC was 0.06 µg/mL (≈ 0.0377 µM).

**Q.** What about the MIC ([4]; S. agalactiae MMX 427 ATCC 13813) of the same compound?
**A.** The MIC was 0.03 µg/mL (≈ 0.0189 µM).

**Q.** What about the MIC ([4]; S. agalactiae MMX 4088) of the same compound?
**A.** Its MIC is 0.015 µg/mL (≈ 0.00944 µM).

**Q.** What about the MIC ([4]; S. agalactiae MMX 4115, erm^R) of the same compound?
**A.** The MIC was 0.015 µg/mL (≈ 0.00944 µM).

**Q.** And the MIC ([4]; S. anginosus (AGS) MMX 1201 ATCC 33397)?
**A.** Its MIC is 0.03 µg/mL (≈ 0.0189 µM).

**Q.** And the MIC ([4]; S. constellatus (AGS) MMX 5677)?
**A.** The MIC was 0.03 µg/mL (≈ 0.0189 µM).

**Q.** What about the MIC ([4]; S. dysgalactiae MMX 5121) of the same compound?
**A.** Its MIC is 0.015 µg/mL (≈ 0.00944 µM).

**Q.** And the MIC ([4]; S. dysgalactiae MMX 5123)?
**A.** The MIC was 0.03 µg/mL (≈ 0.0189 µM).

**Q.** What about the MIC ([4]; S. dysgalactiae MMX 5124) of the same compound?
**A.** Its MIC is 0.015 µg/mL (≈ 0.00944 µM).

**Q.** And the MIC ([4]; S. mitis (MGS) MMX 1205 ATCC 49456)?
**A.** Its MIC is 0.03 µg/mL (≈ 0.0189 µM).

**Q.** And the MIC ([4]; S. mitis (MGS) MMX 5798)?
**A.** Its MIC is 0.015 µg/mL (≈ 0.00944 µM).

**Q.** What about the MIC ([4]; S. oralis (MGS) MMX 5821) of the same compound?
**A.** The MIC was 0.03 µg/mL (≈ 0.0189 µM).

**Q.** And the MIC ([4]; S. pneumoniae MMX 1195 ATCC 49619, PISP)?
**A.** Its MIC is 0.015 µg/mL (≈ 0.00944 µM).

**Q.** What about the MIC ([4]; S. pyogenes MMX 946, ermR) of the same compound?
**A.** Its MIC is 0.015 µg/mL (≈ 0.00944 µM).

**Q.** What about the MIC [5] of the same compound?
**A.** The MIC was 0.06 µg/mL (≈ 0.0377 µM).

**Q.** And the MIC [6]?
**A.** Its MIC is 0.06 µg/mL (≈ 0.0377 µM).

**Q.** And the “RV40 activity as compared to Comparator” value ([7]; MRSA strains (Table 5), […])?
**A.** The value was 9 ×.

**Q.** What about the MIC ([7]; S. aureus MMX 100 ATCC 29213, MSSA (quality control)) of the same compound?
**A.** The MIC was 0.06 µg/mL (≈ 0.0377 µM).

**Q.** And the MIC ([7]; S. aureus MMX 1723, Mu50, VISA)?
**A.** Its MIC is 0.5 µg/mL (≈ 0.315 µM).

**Q.** What about the MIC ([7]; S. aureus MMX 2010, MRSA) of the same compound?
**A.** Its MIC is 0.06 µg/mL (≈ 0.0377 µM).

**Q.** And the MIC ([7]; S. aureus MMX 2011 ATCC BAA-1756, MRSA)?
**A.** The MIC was 0.12 µg/mL (≈ 0.0755 µM).

**Q.** What about the MIC ([7]; S. aureus MMX 2124, VISA, DaptoNS) of the same compound?
**A.** The MIC was 0.25 µg/mL (≈ 0.157 µM).

**Q.** What about the MIC ([7]; S. aureus MMX 2490, MSSA) of the same compound?
**A.** Its MIC is 0.06 µg/mL (≈ 0.0377 µM).

**Q.** And the MIC ([7]; S. aureus MMX 3982, MRSA)?
**A.** Its MIC is 0.06 µg/mL (≈ 0.0377 µM).

**Q.** What about the MIC ([7]; S. aureus MMX 4658, VISA) of the same compound?
**A.** Its MIC is 0.5 µg/mL (≈ 0.315 µM).

**Q.** And the MIC ([7]; S. aureus MMX 4660, VISA)?
**A.** Its MIC is 0.12 µg/mL (≈ 0.0755 µM).

**Q.** And the MIC ([7]; S. aureus MMX 4665, hVISA)?
**A.** The MIC was 0.5 µg/mL (≈ 0.315 µM).

**Q.** What about the MIC ([7]; S. aureus MMX 4675 ATCC BAA-1556, MRSA) of the same compound?
**A.** The MIC was 0.06 µg/mL (≈ 0.0377 µM).

**Q.** And the MIC ([7]; S. aureus MMX 5717 ATCC 33591, MRSA)?
**A.** Its MIC is 0.06 µg/mL (≈ 0.0377 µM).

**Q.** And the MIC ([7]; S. aureus MMX 5985, MRSA)?
**A.** The MIC was 0.06 µg/mL (≈ 0.0377 µM).

**Q.** And the MIC ([7]; S. aureus MMX 5989, Mu3, hVISA)?
**A.** The MIC was 0.06 µg/mL (≈ 0.0377 µM).

**Q.** What about the MIC ([7]; S. aureus MMX 5999, MRSA) of the same compound?
**A.** The MIC was 0.06 µg/mL (≈ 0.0377 µM).

**Q.** What about the MIC ([7]; S. aureus MMX 7899, MRSA) of the same compound?
**A.** Its MIC is 0.06 µg/mL (≈ 0.0377 µM).

**Q.** What about the MIC ([7]; S. aureus MMX 7900, MRSA) of the same compound?
**A.** The MIC was 0.12 µg/mL (≈ 0.0755 µM).

**Q.** And the MIC ([7]; S. aureus MMX 7901, MRSA)?
**A.** Its MIC is 0.06 µg/mL (≈ 0.0377 µM).

**Q.** And the MIC ([7]; S. aureus MMX 7902, MRSA)?
**A.** The MIC was 0.25 µg/mL (≈ 0.157 µM).

**Q.** What about the MIC ([7]; S. aureus MMX 7903, MRSA) of the same compound?
**A.** Its MIC is 0.06 µg/mL (≈ 0.0377 µM).

**Q.** What about the MIC ([7]; S. aureus MMX 7907, MSSA) of the same compound?
**A.** The MIC was 0.06 µg/mL (≈ 0.0377 µM).

**Q.** What about the MIC ([7]; S. aureus MMX 7908, MSSA) of the same compound?
**A.** The MIC was 0.12 µg/mL (≈ 0.0755 µM).

**Q.** And the MIC [8]?
**A.** Its MIC is 0.12 µg/mL (≈ 0.0755 µM).

**Q.** And the MIC [9]?
**A.** Its MIC is 0.06 µg/mL (≈ 0.0377 µM).

**Q.** And the MIC [10]?
**A.** The MIC was 0.03 µg/mL (≈ 0.0189 µM).

**Q.** And the drug precipitation [11]?
**A.** The drug precipitation was “Some precipitation”.

**Q.** What about the MIC [12] of the same compound?
**A.** Its MIC is 0.06 µg/mL (≈ 0.0377 µM).

**Q.** And the MIC ([12]; E. faecalis MMX 1086, VanA VRE)?
**A.** Its MIC is 0.06 µg/mL (≈ 0.0377 µM).

**Q.** And the MIC ([12]; E. faecium MMX 173, VanB VRE)?
**A.** Its MIC is 0.12 µg/mL (≈ 0.0755 µM).

**Q.** And the MIC ([12]; E. faecium MMX 851, VanA VRE)?
**A.** The MIC was 2 µg/mL (≈ 1.26 µM).

**Q.** And the MIC ([13]; P. acnes MMX 7942 ATCC 6919)?
**A.** Its MIC is 0.06 µg/mL (≈ 0.0377 µM).

**Q.** What about the MIC ([13]; P. acnes MMX 7946 ATCC 11827) of the same compound?
**A.** The MIC was 0.06 µg/mL (≈ 0.0377 µM).

**Q.** And the MIC ([14]; C. difficile MMX 4381 ATCC 700057, toxinAB-negative)?
**A.** The MIC was 0.06 µg/mL (≈ 0.0377 µM).

**Q.** What about the MIC ([14]; C. difficile MMX 4994 ATCC BAA-1805, ribotype 027) of the same compound?
**A.** Its MIC is 0.06 µg/mL (≈ 0.0377 µM).

**Q.** And the MIC ([14]; C. difficile MMX 5668 ATCC BAA-1870, NAP1/027)?
**A.** Its MIC is 0.5 µg/mL (≈ 0.315 µM).
